In test [1] the target is T1, HBV genotype D RNAseH (HRHPL) (Hepatitis B virus genotype D subtype ayw, UniProt P03156, INS679M).
T1 construct: HRHPL contains HBV genotype D (Genbank V01460) polymerase residues 684-845; made in house; host or cells: E. coli BL21 codon+
Kind of test: Oligonucleotide-directed RNAseH cleavage assay, HBV genotype D. The class given is biochemical. The settings on record: for Activity vs. HBV Biochemical vs. gtD: class by concentration giving inhibition (10, 20, 60 μM). The method, then:
(§1) For the oligonucleotide-directed RNAseH cleavage assay (Gong et al., 2001), 6 μl protein extract (typical protein concentration 2.8 mg/ml) was mixed with 0.5 μg internally ^32P-labeled DRF+ RNA (nucleotides 2401-2605 of the duck HBV genome plus 60 nucleotides of flanking sequences from pBluescript) and 3 μg oligonucleotide D2507- or its corresponding negative control D2526+ on ice in 20 μl under the conditions in Table 1. Some reactions in FIG. 5 employed oligonucleotide D2543M-Sal or its D2453+ negative control as indicated. The reactions were incubated at 42° C. for 90 min. and terminated by addition of Laemmli protein loading buffer and boiling. The samples were resolved by 12% SDS-PAGE, the gels were stained with Coomassie blue to monitor protein loading, and labeled RNA was detected by autoradiography. Candidate inhibitors were dissolved in DMSO and added at the indicated concentrations during assembly of the reactions. Control reactions lacking the compounds contained DMSO as a vehicle control. The RNAseH autoradiograms were scanned and quantified with ImageJ.
(§2) Oligonucleotide-directed RNAseH cleavage assays (Gong et al., 2001) were performed as described (Tavis et al., 2013). Briefly, HBV RNAseH extracts were mixed with a 264 nt-long internally ^32P-labeled RNA plus an excess of a complementary DNA oligonucleotide or its inverse-complement as a negative control in a final concentration of 65 mM Tris pH 8.0, 190 mM NaCl, 5 mM MgCl2, 5 mM dTT, 0.05% NP40, and 6% glycerol. βTJ was dissolved in DMSO and added at the indicated concentrations; the final concentration of DMSO in all reactions was 1%. The reactions were incubated at 42° C. for 90 min. and terminated by addition of Laemmli protein electrophoresis buffer. The samples were resolved by SDS-PAGE, labeled RNA was detected by autoradiography, the autoradiograms were scanned, and the RNA cleavage products were quantified with ImageJ (National Institutes of Health). IC50 values were calculated by non-linear regression using GraphPad Prism (GraphPad Software, Inc.).

Another test addresses T2, human RNAseH1 (Homo sapiens, UniProt O60930).
T2 construct: hexahistidine (N); made in house; host or cells: E. coli BL21 codon+
T2 sequence (O60930 1-286): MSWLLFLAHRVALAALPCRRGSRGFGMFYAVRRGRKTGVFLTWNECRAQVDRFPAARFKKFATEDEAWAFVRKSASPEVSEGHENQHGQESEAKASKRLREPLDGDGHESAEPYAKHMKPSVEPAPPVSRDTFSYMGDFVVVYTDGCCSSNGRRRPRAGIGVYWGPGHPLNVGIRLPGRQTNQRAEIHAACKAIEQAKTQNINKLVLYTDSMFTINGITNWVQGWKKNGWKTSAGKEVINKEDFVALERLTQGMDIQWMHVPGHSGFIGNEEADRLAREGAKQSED
Kind of test: Oligonucleotide-directed RNAseH assay, recombinant human RNAseH1. The class given is biochemical. The conditions noted are these: class by concentration giving inhibition (10, 20, 60 μM). The method, then:
as §1, with “ImageJ. The oligonucleotides were: D2526+([…]; SEQ ID NO:8), D2507-([…]; SEQ ID NO:9), D2453+([…]; SEQ ID NO:10), and D2543M-Sal ([…]; SEQ ID NO:11).” for “ImageJ.”
Therefore, the inventors cloned the human RNAseH1 with an N-terminal hexahistidine tag, expressed it in E. coli, and purified the protein by nickel affinity chromatography. […] This enzyme was active in the oligonucleotide-directed and fluorescent RNAseH assays (FIG. 10B and data not shown). To determine how inhibition of human RNAseH1 compared to inhibition of the HBV RNAseH, the inventor titrated the RNAaseH1 enzyme to yield similar levels of activity as the HBV enzyme, and then the inventor directly compared the ability of compounds #8-12 to inhibit human RNAseH1 and HRHPL at 10 μM. […] Therefore, it is possible to inhibit the HBV RNAseH without inhibiting human RNAseH1.
as §2

Another test has as its system HBV. Kind of test: HBV genomic replication assays (Table 2). In kind it is cell-based, Hepatitis B virus. The conditions noted are these: class by active concentration. The method, then: Huh7 cells were maintained in Dulbecco's modified Eagle's medium with 10% fetal bovine serum at 37° C. in 5% CO2. Cells were seeded into 60 mm dishes and transfected at 70% confluency with 2.6 μg of plasmids using TransIT-LT1 (Mirus, Inc.). Test compounds were added the morning following transfection at 10 or 50 μM, and fresh medium containing the compounds was provided every 1-2 days. Four or five days post-transfection HBV cores were isolated by lysis of the cells in 10 mM Tris pH 7.5, 1 mM EDTA, 0.25% NP40, 50 mM NaCl, and 8% sucrose followed by sedimentation through a 30% sucrose cushion as described (Travis, et al., 1998). Viral DNAs were isolated from cytoplasmic core particle preparations by proteinase K digestion followed by phenol/chloroform extraction as described (Gong et al., 2001). Duplicate aliquots of the nucleic acids were treated with 2 U E. coli DNAse-free RNAseH (Invitrogen) at 37° C. for 30 min. or were mock treated. The nucleic acid samples were resolved by electrophoresis on 1.2% agarose gels and detected by Southern blotting with ^32P-labeled HBV DNA as a probe. […]

T1 sequence (P03156 680-832, added parts left off, stated change not applied): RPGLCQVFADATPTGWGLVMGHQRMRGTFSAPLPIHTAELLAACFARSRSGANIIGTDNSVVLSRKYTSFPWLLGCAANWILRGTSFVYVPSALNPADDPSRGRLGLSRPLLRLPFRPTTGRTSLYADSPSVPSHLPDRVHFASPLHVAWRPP

`N#Cc1c(NC(=O)CSc2nnc(C3CC3)o2)sc2c1CCC2` [Compound 32]: in test [1], the “Activity vs. HBV Biochemical vs. gtD” value is recorded as “− (− no inhibition at 60 μM)”.
On the same count and under the same terms, next, `CCN1C[C@H](C)n2c(c(O)c3c(=O)n(Cc4ccc(F)c(Cl)c4)nc(C(=O)NC)c32)C1=O` [Compound 74, reference compound]: “− (− no inhibition at 60 μM)”; `CCOC(=O)c1sc(NC(=O)CSc2nnc(-c3ccc(Cl)cc3)o2)c(C#N)c1C` [Compound 24]: “− (− no inhibition at 60 μM)”; `N#Cc1cc2ccccc2oc1=N` [Compound 21]: “− (− no inhibition at 60 μM)”.
On the same count and under the same terms, next, `Cc1ccc2oc(=O)c(C#N)c(C)c2c1` [Compound 33]: “− (− no inhibition at 60 μM)”.
As for `CCOC(=O)c1cc2ccccc2n(O)c1=O` [Compound 42], in test [1], the “Activity vs. HBV Biochemical vs. gtD” value is “− (− no inhibition at 60 μM)”. Also, the “Activity vs. human RNAseH1” value at human RNAseH1 was “+ (+ inhibition at 60 μM)”.
For `CC1COc2c(N3CCN(C)CC3)c(F)cc3c(=O)c(C(=O)O)cn1c23` (stereo not drawn) [Compound 68], the “Activity vs. HBV Biochemical vs. gtD” value in test [1] is listed as “− (− no inhibition at 60 μM)”.
On the same count and under the same terms, as for `CCn1cc(C(=O)O)c(=O)c2ccc(C)nc21` [Compound 70], the entry is “− (− no inhibition at 60 μM)”.
As for `O=Nc1ccc(O)c(=O)cc1` [Compound 50, 5-nitrosotropolone], in the test on HBV, the “Activity vs. HBV Genomic Replication” value is on record as “+ (+, activity detectable at >10 μM)”. Also, the “Activity vs. HBV Biochemical vs. gtD” value in test [1] was “++ (++ inhibition at 20 μM)”. Moreover, at human RNAseH1, the “Activity vs. human RNAseH1” value is “− (− no inhibition at 60 μM)”.
As for `Cn1c(C(C)(C)N)nc(C(=O)NCc2ccc(F)cc2)c(O)c1=O` [Compound 77, reference compound], in test [1], the “Activity vs. HBV Biochemical vs. gtD” value is on record as “− (− no inhibition at 60 μM)”.
Turning to `Cc1cc(C)n(O)c(=O)c1C#N` [Compound 44], the “Activity vs. HBV Biochemical vs. gtD” value in test [1] is listed as “− (− no inhibition at 60 μM)”. Besides, the “Activity vs. human RNAseH1” value on human RNAseH1 is given as “− (− no inhibition at 60 μM)”.
With `Cc1ccc(S(=O)(=O)Oc2cccccc2=O)cc1` [Compound 61], in test [1], the “Activity vs. HBV Biochemical vs. gtD” value is “− (− no inhibition at 60 μM)”. Also, the “Activity vs. human RNAseH1” value on human RNAseH1 is “++ (++ inhibition at 20 μM)”.
As to `O=c1ccccc(Br)c1O` [Compound 54, 3-bromotropolone], the “Activity vs. HBV Biochemical vs. gtD” value in test [1] was “− (− no inhibition at 60 μM)”.
On the same count and under the same terms, as for `O=C(Oc1cccccc1=O)c1ccc(Cl)cc1` [Compound 63], the entry is “− (− no inhibition at 60 μM)”.
Consider `O=C(Oc1cccccc1=O)c1ccc([N+](=O)[O-])cc1` [Compound 51, tropolone p-nitrobenzoate], for which the “Activity vs. HBV Biochemical vs. gtD” value in test [1] was “+ (+ inhibition at 60 μM)”.
`CC(C)=CCc1ccc(O)c(=O)cc1C(C)C` [Compound 49, Nootkatin]: the “Activity vs. HBV Biochemical vs. gtD” value in test [1] is reported as “++ (++ inhibition at 20 μM)”. Also, the “Activity vs. human RNAseH1” value at human RNAseH1 is on record as “− (− no inhibition at 60 μM)”.
The like results for `CCOC(=O)c1sc(NC(=O)CSc2nnc[nH]2)c(C#N)c1C` [Compound 28] were, in that order, “− (− no inhibition at 60 μM)” and “+ (+ inhibition at 60 μM)”.
As to `CCn1cc(C(=O)O)c(=O)c2cc3c(cc21)OCO3` [Compound 65], the “Activity vs. HBV Biochemical vs. gtD” value in test [1] is “− (− no inhibition at 60 μM)”.
Regarding `O=C(Nc1ccc(O)c(=O)cc1)c1ccccc1` [Compound 52], in test [1], the “Activity vs. HBV Biochemical vs. gtD” value is “− (− no inhibition at 60 μM)”. At human RNAseH1, the “Activity vs. human RNAseH1” value is on record as “− (− no inhibition at 60 μM)”.
For `Cc1cc(C2CCCCC2)n(O)c(=O)c1` [Compound 41, Ciclopirox, reference compound], the “Activity vs. HBV Biochemical vs. gtD” value in test [1] is given as “− (− no inhibition at 60 μM)”. Moreover, the “Activity vs. human RNAseH1” value at human RNAseH1 was “+ (+ inhibition at 60 μM)”.
Consider `CCOC(=O)c1sc(NC(=O)CSc2nc(C)cc(-c3ccccc3)n2)c(C#N)c1C` [Compound 26], for which the “Activity vs. HBV Biochemical vs. gtD” value in test [1] is “− (− no inhibition at 60 μM)”.
Still for that read-out and setting: next, `N#Cc1c(NC(=O)CSc2nnc(Cc3ccccc3)o2)sc2c1CCCC2` [Compound 25]: “− (− no inhibition at 60 μM)”; `CCOC(=O)c1sc(NC(=O)CSc2ccc(Cl)cc2)c(C#N)c1C` [Compound 37]: “− (− no inhibition at 60 μM)”.
As to `Cc1cc(C)c(OC(=O)c2ccc(Cl)cc2)c(=O)c(C)c1` [Compound 59], in test [1], the “Activity vs. HBV Biochemical vs. gtD” value was “− (− no inhibition at 60 μM)”. Moreover, on human RNAseH1, the “Activity vs. human RNAseH1” value is “+ (+ inhibition at 60 μM)”.
For `CC(=O)NC(CCc1ccc(Cl)c(Cl)c1)c1cccc(O)c(=O)c1` (stereo not drawn) [Compound 55], in test [1], the “Activity vs. HBV Biochemical vs. gtD” value is “+ (+ inhibition at 60 μM)”. Further, the “Activity vs. human RNAseH1” value at human RNAseH1 was “+ (+ inhibition at 60 μM)”.
Regarding `CC(C)S[C@@H]1O[C@H](CO)[C@H](O)[C@H](O)[C@H]1O` [IPTG, reference compound], the “RNAseH activity of HRHPL relative to the DMSO vehicle control” value in test [1] (irrelevant compounds at 10 μM, pooled) is 52±9%.
For the compound `O=C(O)c1cn(C2CC2)c2cc(Cl)c(F)cc2c1=O` [Compound 66], in test [1], the “Activity vs. HBV Biochemical vs. gtD” value is “− (− no inhibition at 60 μM)”.
On the same count and under the same terms, next, `O=c1cccccc1Cl` [Compound 57, 2-chlorotropone]: “− (− no inhibition at 60 μM)”; `O=C(Oc1cccccc1=O)c1ccccc1` [Compound 62]: “+ (+ inhibition at 60 μM)”; `Cc1cc(C(F)(F)F)c(C#N)c(=O)[nH]1` [Compound 19]: “− (− no inhibition at 60 μM)”.
On the same count and under the same terms, as for `CCOC(=O)c1sc(NC(=O)CSc2nccc(C)n2)c(C#N)c1C` [Compound 27], the entry is “− (− no inhibition at 60 μM)”.

Values taken from patent US10329542B2, “HBV RNAse H purification and enzyme inhibitors” (Saint Louis University, priority 2012, dated 2019).
